Experimental data reported in patent US20050256034A1, “Dioxolane analogs for improved inter-cellular delivery” (priority 2000, published 2005).

Assays:
Type in all cases: cell-based
[1] = target: T1, recombinant hCNT1 (Homo sapiens, UniProt O00337); assay: Uptake by recombinant transporter in transiently transfected HeLa cells; conditions: 10 μM, 100 μM dilazep
T1 construct: expressed in transfected cells; host or cells: HeLa cells, transient transfection with pcDNA3-hCNT1 (subcloned from pMHK2)
T1 sequence (O00337 1-649): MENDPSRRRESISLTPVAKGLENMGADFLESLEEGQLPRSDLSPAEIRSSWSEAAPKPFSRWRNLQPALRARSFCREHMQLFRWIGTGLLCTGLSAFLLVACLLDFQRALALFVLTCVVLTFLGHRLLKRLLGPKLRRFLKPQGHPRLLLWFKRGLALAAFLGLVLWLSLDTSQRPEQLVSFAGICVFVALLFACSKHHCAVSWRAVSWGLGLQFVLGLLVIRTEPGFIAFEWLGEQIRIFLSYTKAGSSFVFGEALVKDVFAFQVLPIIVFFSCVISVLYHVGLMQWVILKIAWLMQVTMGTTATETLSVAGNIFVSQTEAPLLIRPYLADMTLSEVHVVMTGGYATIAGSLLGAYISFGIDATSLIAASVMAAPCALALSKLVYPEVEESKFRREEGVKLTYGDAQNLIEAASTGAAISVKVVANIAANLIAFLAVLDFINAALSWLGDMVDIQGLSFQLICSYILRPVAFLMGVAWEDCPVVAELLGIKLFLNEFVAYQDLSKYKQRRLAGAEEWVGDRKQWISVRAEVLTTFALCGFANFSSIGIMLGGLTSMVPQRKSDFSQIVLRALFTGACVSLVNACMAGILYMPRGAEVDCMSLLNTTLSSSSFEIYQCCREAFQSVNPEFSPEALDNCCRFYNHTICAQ
Procedure: (§1) Transport assays were conducted in the presence of the equilibrative transport inhibitor, 100 μM dilazep and either in the presence ( ? ) or absence (▴) of […].sodium, and compared to HeLa cells transiently transfected with the empty vector control plasmic (▾)
(§2) Expression plasmids encoding recombinant hCNT1 and hCNT2 are prepared using conventional methods. […] The expression vectors are separately introduced into actively proliferating HeLa cells, following conventional methods. See, e.g., Fang et al (1996).
(§3) Recombinant hCNT1 and hCNT2 were separately introduced into HeLa cells by transient transfection of pcDNA3 plasmids containing the coding sequences of the relevant nucleoside transporter protein. […] Uptake of 10 μM [:H]troxacitabine was not mediated either by hCNT1 or by hCNT2.

[2] = target: T2, recombinant hCNT2 (Homo sapiens, UniProt O43868); assay: as above; conditions: 10 μM, 100 μM dilazep
T2 construct: expressed in transfected cells; host or cells: HeLa cells, transient transfection with pcDNA3-hCNT2 (subcloned from pMH15)
T2 sequence (O43868 1-658): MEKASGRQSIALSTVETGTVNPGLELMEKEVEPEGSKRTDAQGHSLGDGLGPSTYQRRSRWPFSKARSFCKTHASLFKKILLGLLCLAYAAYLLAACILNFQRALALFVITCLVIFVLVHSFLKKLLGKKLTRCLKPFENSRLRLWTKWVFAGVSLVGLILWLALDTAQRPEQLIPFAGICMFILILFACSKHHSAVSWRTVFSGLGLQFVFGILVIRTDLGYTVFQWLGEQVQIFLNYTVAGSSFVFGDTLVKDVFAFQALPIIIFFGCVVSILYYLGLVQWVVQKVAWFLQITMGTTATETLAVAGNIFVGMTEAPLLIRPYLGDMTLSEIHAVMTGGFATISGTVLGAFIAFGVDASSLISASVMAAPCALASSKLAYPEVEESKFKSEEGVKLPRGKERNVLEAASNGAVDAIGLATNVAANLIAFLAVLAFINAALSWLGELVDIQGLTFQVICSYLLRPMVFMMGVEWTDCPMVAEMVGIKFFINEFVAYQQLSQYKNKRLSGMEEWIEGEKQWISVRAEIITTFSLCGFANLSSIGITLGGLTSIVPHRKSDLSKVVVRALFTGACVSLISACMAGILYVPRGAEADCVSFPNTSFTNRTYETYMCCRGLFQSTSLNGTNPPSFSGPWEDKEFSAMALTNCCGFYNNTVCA
Procedure: as §1, §2, §3

[3] = test system: CEM/ARAC8C cells; assay: Cellular uptake assay of 3H-labelled nucleoside; conditions: 30 μM, 6-min time course, compared with uridine
Procedure: (§4) FIG. 1 Comparative uptake of 30 μM [^3H]-troxacitabine in CEM (Panel A) and CEM/APAC8C (Panel B) cells. [^3H]-Uridine uptake in either the presence or absence of the hENT1 inhibitor, NBMPR or 5 mM non-radioactive uridine was included for comparison as a control substrate.
(§5) Cancer Res., 56: 4187-4191.
(§6) The transport of [^3H]uridine was inhibited in the presence either of the hENT1 inhibitor, NBMPR, or excess non-radioactive uridine.

[4] = test system: CEM cells (es, hENT1); assay: Cellular uptake assay of 3H-labelled nucleoside; conditions: 30 μM, 6-min time course, compared with uridine
Procedure: as §4, §5, §6

[5] = test system: CEM cells; assay: CellTiter 96 cell proliferation assay, 48 h exposure; conditions: Homo sapiens, CCRF-CEM, 48 h, read-out: Chemosensitivity, 50% of the dose response curve (EC50), CEM + NBMPR (100 nM), 48 h exposure, mean ± SD
Procedure: The chemosensitivity of suspension cells lines (e.g., CEM or CEM-derivatives) is assessed using the CellTiter 96 ? proliferation assay. […] Chemosensitivity is expressed as 50% (ECso) of the dose response curve determined, e.g., using GraphPad Prism 2.01 (GraphPad Software, San Diego, Calif.). Adherent cell lines (e.g., DU145 or DU145^R) are seeded (˜10^5 cells) in triplicate dishes, 24 h before drug exposure. Growth inhibition is determined by trypsinization and counting cells electronically.

`Nc1ccn([C@@H]2CO[C@H](CO)O2)c(=O)n1` [Troxacitabine, troxacitabine] was tested, and the “uptake mediated by hCNT1” value [1] was “not mediated”, the “uptake mediated by hCNT2” value [2] was “not mediated” and the “uptake of 3H-labelled nucleoside” value [3] was “taken up to a lesser degree”. For the same compound, the “uptake of 3H-labelled nucleoside” value [4] was “taken up to a lesser degree” and the EC50 [5] was 210 ± 19 nM.
